Assay results from US20240010606A1, “FUMARATE DERIVATIVES AND THEIR MEDICAL USE” (Sitryx Therapeutics Limited, priority 2020, published 2024).
Counter-ions that a name gives are not always drawn.

Legend:
[1] = tested on: IL-1β; test: THP-1 AlphaLISA IL-1β cytokine assay; assay type: cell-based; settings: Homo sapiens; differentiated THP-1 cells, LPS then Nigericin; Table 1
Procedure: Biological Example 1—THP-1 AlphaLISA IL-1β and IL-6 Cytokine Assay Measuring Inhibitory Effects on IL-1, and IL-6 Cytokine Output from THP-1s The cytokine inhibition profiles of compounds of formula (I) were determined in a differentiated THP-1 cell assay. All assays were performed in RPMI-1640 growth medium (Gibco), supplemented with 10% fetal bovine serum (FBS; Gibco), 1% penicillin-streptomycin and 1% sodium pyruvate unless specified otherwise. The IL-1β and IL-6 cytokine inhibition assays were each run in a background of differentiated THP-1 cells as described below. All reagents described were from Sigma-Aldrich unless specified otherwise. Compounds were prepared as 10 mM DMSO stocks. THP-1 cells were expanded as a suspension up to 80% confluence in appropriate growth medium. Cells were harvested, suspended, and treated with an appropriate concentration of phorbol 12-myristate 13-acetate (PMA) over a 72 hr period (37° C./5% CO2). Following 72 hrs of THP-1 cell incubation, cellular medium was removed and replaced with fresh growth media containing 1% of FBS. Working concentrations of compounds were prepared separately in 10% FBS treated growth medium and pre-incubated with the cells for 30 minutes (37° C./5% CO2). Following the 30 minute compound pre-incubation, THP-1s were treated with an appropriate concentration of LPS and the THP-1s were subsequently incubated for a 24 hr period (37° C./5% CO2). An appropriate final concentration of Nigericin was then dispensed into the THP-1 plates and incubated for 1 hour (37° C./5% CO2) before THP-1 supernatants were harvested and collected in separate polypropylene 96-well holding plates. Reagents from each of the IL-1β and IL-6 commercial kits (Perkin Elmer) were prepared and run according to the manufacturer's instructions. Subsequently, fluorescence signal detection in a microplate reader was measured (EnVision® Multilabel Reader, Perkin Elmer). Percentage inhibition was calculated per cytokine by normalizing the sample data to the high and low controls used within each plate (+/−LPS respectively). Percentage inhibition was then plotted against compound concentration and the 50% inhibitory concentration (IC50) was determined from the resultant concentration-response curve.

[2] = Hepatocyte stability assay, mouse; assay type: in vitro ADME; settings: mouse, cryopreserved hepatocytes, 10 μM compound
Text: (§1) Biological Example 3—Hepatocyte Stability Assay
(§2) Defrosted cryo-preserved hepatocytes (viability >70%) are used to determine the metabolic stability of a compound via calculation of intrinsic clearance (CIint; a measure of the removal of a compound from the liver in the absence of blood flow and cell binding). Clearance data are particularly important for […] as they can be used in combination with in vivo data to predict the half-life and oral bioavailability of a drug.
(§3) The metabolic stability in hepatocytes assay involves a time-dependent reaction using both positive and negative controls. The cells must be pre-incubated at 37° C. then spiked with test compound (and positive control); samples taken at pre-determined time intervals are analysed to monitor the change in concentration of the initial drug compound over 60 minutes. A buffer incubation reaction (with no hepatocytes present) acts as a negative control and two cocktail solutions, containing compounds with known high and low clearance values (verapamil/7-hydroxycoumarin and propranolol/diltiazem), act as positive controls. • 1. The assay is run with a cell concentration of 0.5×10^6 cells/mL in Leibovitz buffer. • 2. All compounds and controls are run in duplicate. • 3. Compound concentration is 10 μM. • 4. All compounds and controls are incubated with both cells and buffer to show turnover is due to hepatic metabolism. • 5. All wells on the incubation plate will have 326.7 μL of either cells or buffer added. • 6. Prior to assay, cell and buffer-only incubation plates are preincubated for 10 mins at 37° C. • 7. The assay is initiated by adding compounds, 3.3 μL of 1 mM in 10% DMSO-90% Buffer; final DMSO concentration is 0.1%. • 8. Samples are taken at regular timepoints (0, 5, 10, 20, 40, 60 min) until 60 mins. • 9. Sample volume is 40 μL and it is added to 160 μL of crash solvent (acetonitrile with internal standard) and stored on ice. • 10. At the end of the assay, the crash plates are centrifuged at 3500 rpm for 20 mins at 4° C. • 11. 80 μL of clear supernatant is removed and mixed with 80 μL of deionised water before being analysed by LC-MS/MS.
(§4) Raw LC-MS/MS data are exported to, and analysed in, Microsoft Excel for determination of intrinsic clearance. The percentage remaining of a compound is monitored using the peak area of the initial concentration as 100%. Intrinsic clearance and half-life values are calculated using a graph of the natural log of percentage remaining versus the time of reaction in minutes. Half-life (min) and intrinsic clearance (CIint in μL min^−1 10^−6 cells) values are calculated using the gradient of the graph (the elimination rate constant, k) and Equations 1 and 2.

[3] = tested on: hepatocytes; test: Hepatocyte stability assay, mouse; assay type: in vitro ADME; settings: 10 μM compound
Text: as §1, §2, §3, §4

[4] = Hepatocyte stability assay, human; assay type: in vitro ADME; settings: cryopreserved hepatocytes, 10 μM compound, Table 5, read-out: T½
Text: as §1, §2, §3, §4

[5] = tested on: hepatocytes; test: Hepatocyte stability assay, human; assay type: in vitro ADME; settings: 10 μM compound
Text: as §1, §2, §3, §4

[6] = tested on: NRF2; test: NRF2 activation assay (DiscoverX PathHunter NRF2 translocation kit, U2OS cells); assay type: cell-based; settings: Table 3; for NRF2 activation Emax: normalised to dimethyl fumarate high control
Procedure: Biological Example 2—NRF2 Activation Assay Measuring Compound Activation Effects on the Anti-Inflammatory Transcription Factor NRF2 in DiscoverX PathHunter NRF2 Translocation Kit Potency and efficacy of compounds of formula (I) against the target of interest to activate NRF2 (nuclear factor erythroid 2-related factor 2) were determined using the PathHunter NRF2 translocation kit (DiscoverX). The NRF2 translocation assay was run using an engineered recombinant cell line, utilising enzyme fragment complementation to determine activation of the Keap1-NRF2 protein complex and subsequent translocation of NRF2 into the nucleus. Enzyme activity was quantified using a chemiluminescent substrate consumed following the formation of a functional enzyme upon PK-tagged NRF2 translocation into the nucleus. Additionally, a defined concentration of dimethyl fumarate was used as the ‘High’ control to normalise test compound activation responses to. U2OS PathHunter eXpress cells were thawed from frozen prior to plating. Following plating, U2OS cells were incubated for 24 hrs (37° C./5% CO2) in commercial kit provided cell medium. Following 24 hrs of U2OS incubation, cells were directly treated with an appropriate final concentration of compound. Following compound treatment, the U2OS plates were incubated for a further 6 hours (37° C./5% CO2) before detection reagent from the PathHunter NRF2 commercial kit was prepared and added to test plates according to the manufacturer's instructions. Subsequently, the luminescence signal detection in a microplate reader was measured (PHERAstar®, BMG Labtech). Percentage activation was calculated by normalising the sample data to the high and low controls used within each plate (+/−DMF). Percentage activation/response was then plotted against compound concentration and the 50% activation concentration (EC50) was determined from the plotted concentration-response curve.

IC50 [1]	half-life at 10 μM ([2]; Table 5, read-out: T½)	half-life at 10 μM ([2]; Table 6, read-out: T½)	CIint ([3]; Table 5)	CIint ([3]; Table 6)	half-life at 10 μM [4]	CIint ([5]; Table 5)	CIint ([5]; Table 6)	T½ ([5]; Table 6)	EC50 ([6]; +GSH)	EC50 ([6]; −GSH)	Structure (SMILES)	NRF2 activation Emax ([6]; +GSH)	NRF2 activation Emax ([6]; −GSH)
6.2 µM	< 5 min	< 5 min	>277 μL min^−1 10^−6 cells	>277 μL min^−1 10^−6 cells	< 5 min	>277 μL min^−1 10^−6 cells	>277 μL min^−1 10^−6 cells	<5 min			COC(=O)/C=C/C(=O)OCCN1C(=O)CCC1=O [2-(2,5-Dioxopyrrolidin-1-yl)ethyl methyl fumarate, reference compound]		
2.5 to 6.1 µM	< 5 min		+ (+ means >277)		5 to 29 min	++ (++ means 150-277)			20 to 100 µM	2.1 to 6 µM	O=C(/C=C/C(=O)OC1CCCCCCC1)OCCc1nnn[nH]1 [Example 5, 2-(1H-tetrazol-5-yl)ethyl cyclooctyl fumarate]	+ (+ means >17.1-99)	+++ (+++ means 150-199%)
< 2.5 µM	5 to 10 min		++ (++ means 200-277)		30 to 100 min	++++ (++++ means <50)			6 to 20 µM	< 2 µM	C[C@H](OC(=O)/C=C/C(=O)OC1CCCCCCC1)C(=O)O [Example 6, (S,E)-2-((4-(cyclooctyloxy)-4-oxobut-2-enoyl)oxy)propanoic acid]	+ (+ means >17.1-99)	++++ (++++ means 200-250%)
< 2.5 µM	< 5 min		+ (+ means >277)		5 to 29 min	+++ (+++ means 50-149)			6 to 20 µM	< 2 µM	CC(C)(COC(=O)/C=C/C(=O)OC1CCCCCCC1)C(=O)O [Example 7, (E)-3-((4-(cyclooctyloxy)-4-oxobut-2-enoyl)oxy)-2,2-dimethylpropanoic acid]	+ (+ means >17.1-99)	++++ (++++ means 200-250%)
< 2.5 µM	< 5 min		+ (+ means >277)		5 to 29 min	+++ (+++ means 50-149)			20 to 100 µM	< 2 µM	O=C(/C=C/C(=O)OC1(C(=O)O)CC1)OC1CCCCCCC1 [Example 8, (E)-1-((4-(cyclooctyloxy)-4-oxobut-2-enoyl)oxy)cyclopropane-1-carboxylic acid]	++ (++ means 100-149)	++++ (++++ means 200-250%)
2.5 to 6.1 µM	< 5 min		+ (+ means >277)		30 to 100 min	++++ (++++ means <50)					O=C(O)COC(=O)/C=C/C(=O)OC1CC2(CCC2)C1 [Example 9, (E)-2-((4-oxo-4-(spiro[3.3]heptan-2-yloxy)but-2-enoyl)oxy)acetic acid]		
< 2.5 µM	< 5 min		+ (+ means >277)		30 to 100 min	++++ (++++ means <50)					O=C(O)COC(=O)/C=C/C(=O)OC1CCCCCC1 [Example 10, (E)-2-((4-(cycloheptyloxy)-4-oxobut-2-enoyl)oxy)acetic acid]		
< 2.5 µM	< 5 min		+ (+ means >277)		5 to 29 min	+++ (+++ means 50-149)			20 to 100 µM	< 2 µM	CC(CC(=O)O)OC(=O)/C=C/C(=O)OC1CCCCCCC1 (stereo not shown) [Example 11, (E)-3-((4-(cyclooctyloxy)-4-oxobut-2-enoyl)oxy)butanoic acid]	+ (+ means >17.1-99)	++++ (++++ means 200-250%)
< 2.5 µM	< 5 min		+ (+ means >277)		> 100 min	++++ (++++ means <50)			6 to 20 µM	< 2 µM	C[C@@H](OC(=O)/C=C/C(=O)OC1CCCCCCC1)C(=O)O [Example 12, (R,E)-2-((4-(cyclooctyloxy)-4-oxobut-2-enoyl)oxy)propanoic acid]	++ (++ means 100-149)	++++ (++++ means 200-250%)
< 2.5 µM	< 5 min		+ (+ means >277)		< 5 min	+ (+ means >277)			6 to 20 µM	2.1 to 6 µM	CCCCCC[C@@H](C)OC(=O)/C=C/C(=O)OCCC(=O)O [Example 14, (R,E)-3-((4-(octan-2-yloxy)-4-oxobut-2-enoyl)oxy)propanoic acid]	++ (++ means 100-149)	+++ (+++ means 150-199%)

Structure (SMILES)	IC50 [1]	half-life at 10 μM ([2]; Table 5, read-out: T½)	half-life at 10 μM ([2]; Table 6, read-out: T½)	CIint ([3]; Table 5)	CIint ([3]; Table 6)	half-life at 10 μM [4]	CIint ([5]; Table 5)	CIint ([5]; Table 6)	T½ ([5]; Table 6)	EC50 ([6]; +GSH)	EC50 ([6]; −GSH)	NRF2 activation Emax ([6]; +GSH)	NRF2 activation Emax ([6]; −GSH)
CCCCCC[C@@H](C)OC(=O)/C=C/C(=O)OCC(=O)O [Example 13, 2-[(E)-4-[(1R)-1-methylheptoxy]-4-oxo-but-2-enoyl]oxyacetic acid]	2.5 to 6.1 µM	< 5 min		+ (+ means >277)		5 to 29 min	+++ (+++ means 50-149)			20 to 100 µM	< 2 µM	++ (++ means 100-149)	+++ (+++ means 150-199%)
